Drawing on PubChem BioAssay (NCI), this text covers GI50 and TGI for 7 molecules.

Where “and” joins values, the source holds several entries; their conditions need not be identical. Equal values may be shown once.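 Values below derive from 48-hour exposures of cells grown in 96-well plates, with endpoints linearly interpolated between the two concentrations bracketing the appropriate inhibition level. GI50 = concentration required for 50% inhibition of growth. Definition used: TGI = concentration required for complete inhibition of growth.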

Some test systems named below: UACC-62 melanoma; SF-268 CNS; ACHN renal; SF-539 CNS; SK-MEL-5 melanoma; NCI/ADR-RES ovarian; HCT-116 colon; SK-MEL-2 melanoma; COLO 205 colon; NCI-H23 lung.
Assay in all cases: NCI anticancer screen, dose series, 48 h

Regarding `C[C@]12CCC(=O)C[C@@H]1CC[C@@H]1[C@@H]2CC[C@]2(C)[C@@H](OC(=O)N(CCCl)N=O)CC[C@@H]12`, the GI50 was 377 nM with UACC-62 melanoma; 98.3 nM in the assay on SF-268 CNS; 321 nM with ACHN renal; 69 nM with SF-539 CNS; 1050 nM in the assay with SK-MEL-5 melanoma; 1220 nM with NCI/ADR-RES ovarian. The GI50 with HCT-116 colon is 2890 nM; in the assay on SK-MEL-2 melanoma it was 3470 nM; in the assay on COLO 205 colon, 1700 nM; in the assay with NCI-H23 lung it was 1320 nM. Moreover, the TGI in the assay on UACC-62 melanoma was determined as 11700 nM; in the assay on SF-268 CNS, 8850 nM; with ACHN renal, 11700 nM; in the assay on SF-539 CNS, 4670 nM; with SK-MEL-5 melanoma, 6160 nM; in the assay with NCI/ADR-RES ovarian it was 28000 nM. Also, the TGI was above 35100 nM in the assay on HCT-116 colon, 16800 nM in the assay on SK-MEL-2 melanoma, 4720 nM in the assay with COLO 205 colon and 25400 nM with NCI-H23 lung.
As to `O=C1C=CC(=O)c2c1nc(CBr)[nH]c2=O`, the TGI with UACC-62 melanoma, in the assay on SF-268 CNS, in the assay on ACHN renal, in the assay with SF-539 CNS, in the assay on SK-MEL-5 melanoma and in the assay on NCI/ADR-RES ovarian was above 100000 nM in each case. For the same molecule, the TGI with HCT-116 colon, with SK-MEL-2 melanoma, in the assay on COLO 205 colon and in the assay on NCI-H23 lung was above 100000 nM throughout.
Consider `CN(C)c1ccc2[nH]c3c(C(N)=O)cc(=O)c(=O)c=3oc2c1`, for which the GI50 with UACC-62 melanoma was 1740 nM; with SF-268 CNS, 3040 nM; with ACHN renal, 767 nM; in the assay with SF-539 CNS, 428 nM; with SK-MEL-5 melanoma, 1800 nM; in the assay with NCI/ADR-RES ovarian, 1810 nM. In addition, the GI50 is 304 nM in the assay with HCT-116 colon, 1870 nM in the assay with SK-MEL-2 melanoma, 3500 nM in the assay with COLO 205 colon and 1100 nM in the assay with NCI-H23 lung. Further, the TGI with UACC-62 melanoma is 5320 nM; with SF-268 CNS it was above 100000 nM; in the assay with ACHN renal it was 8980 nM; with SF-539 CNS, 4430 nM; in the assay with SK-MEL-5 melanoma, 3550 nM; in the assay on NCI/ADR-RES ovarian, 8390 nM. The TGI in the assay with HCT-116 colon is 1220 nM; in the assay on SK-MEL-2 melanoma, 5340 nM; in the assay on COLO 205 colon, above 100000 nM; in the assay with NCI-H23 lung it was 25800 nM.
`CNC(=O)c1cc(Oc2ccc(NC(=O)Nc3cc(C(C)(C)C)nn3-c3ccc4ncccc4c3)c(F)c2)ccn1`: the GI50 is 74.3 nM and 62.4 nM in the assay with UACC-62 melanoma; 1410 nM and 1520 nM in the assay on SF-268 CNS; 915 nM and 475 nM with ACHN renal; 2000 nM and 1710 nM in the assay on SF-539 CNS; 1350 nM and 1510 nM in the assay on SK-MEL-5 melanoma; 2650 nM and 3360 nM with NCI/ADR-RES ovarian. Also, the GI50 is 1410 nM and 1370 nM with HCT-116 colon; 1810 nM and 2550 nM in the assay with SK-MEL-2 melanoma; 459 nM and 620 nM with COLO 205 colon; 1650 nM and 1260 nM with NCI-H23 lung. Moreover, the TGI is 1620 nM and 1180 nM in the assay on UACC-62 melanoma; 5160 nM and 4490 nM with SF-268 CNS; 7470 nM and > 23600 nM with ACHN renal; 4620 nM and 3660 nM in the assay on SF-539 CNS; 2860 nM and 3140 nM in the assay on SK-MEL-5 melanoma; 8390 nM and 58400 nM in the assay on NCI/ADR-RES ovarian. For the same molecule, the TGI in the assay with HCT-116 colon is 7280 nM and 5940 nM; with SK-MEL-2 melanoma it was 4340 nM and 5450 nM; in the assay with COLO 205 colon, 1850 nM and 2200 nM; in the assay with NCI-H23 lung it was 5910 nM and 4780 nM.
As to `O=C1Cc2cc(CCN3CCNCC3)c(Cl)cc2N1`, the GI50 in the assay with UACC-62 melanoma was 6540 nM; with SF-268 CNS, 12700 nM; in the assay with ACHN renal, above 100000 nM; in the assay on SF-539 CNS, above 100000 nM; in the assay with SK-MEL-5 melanoma it was 5330 nM; in the assay with NCI/ADR-RES ovarian it was 5110 nM. For the same molecule, the GI50 is 10000 nM in the assay on HCT-116 colon, 15200 nM in the assay with SK-MEL-2 melanoma, 19700 nM in the assay on COLO 205 colon and 46400 nM with NCI-H23 lung. For the same molecule, the TGI in the assay on UACC-62 melanoma, in the assay with SF-268 CNS, in the assay on ACHN renal, with SF-539 CNS, in the assay with SK-MEL-5 melanoma and in the assay on NCI/ADR-RES ovarian was above 100000 nM each time. Also, the TGI in the assay on HCT-116 colon, in the assay with SK-MEL-2 melanoma, in the assay with COLO 205 colon and in the assay with NCI-H23 lung was above 100000 nM throughout.
In the case of `O=C1/C(=C/c2ccc(C(F)(F)F)cc2)COc2ccc(O)c(O)c21`, the GI50 with UACC-62 melanoma was 1480 nM; in the assay with SF-268 CNS, 1670 nM; in the assay on ACHN renal it was 1110 nM; with SF-539 CNS, 1140 nM; in the assay with SK-MEL-5 melanoma, 1730 nM; in the assay with NCI/ADR-RES ovarian, 1800 nM. Besides, the GI50 is 1350 nM in the assay with HCT-116 colon, 1830 nM in the assay on SK-MEL-2 melanoma, 1580 nM with COLO 205 colon and 1610 nM with NCI-H23 lung. For the same molecule, the TGI in the assay on UACC-62 melanoma turned out to be 2870 nM; in the assay with SF-268 CNS, 3830 nM; in the assay with ACHN renal, 2310 nM; with SF-539 CNS, 2460 nM; in the assay with SK-MEL-5 melanoma it was 3210 nM; in the assay with NCI/ADR-RES ovarian it was 6590 nM. The TGI with HCT-116 colon was found to be 3120 nM; in the assay on SK-MEL-2 melanoma it was 3990 nM; with COLO 205 colon it was 3060 nM; with NCI-H23 lung it was 3210 nM.
Regarding `CN1CCN(c2ccc(NC3=CC(=O)c4ncncc4C3=O)cc2)CC1`, the GI50 was 303 nM in the assay with UACC-62 melanoma; 1770 nM in the assay on SF-268 CNS; 228 nM in the assay with ACHN renal; 612 nM in the assay with SF-539 CNS; 302 nM with SK-MEL-5 melanoma; 294 nM in the assay on NCI/ADR-RES ovarian. Besides, the GI50 in the assay with HCT-116 colon was 229 nM; with SK-MEL-2 melanoma, 1540 nM; in the assay with COLO 205 colon it was 1930 nM; in the assay on NCI-H23 lung, 369 nM. Further, the TGI was found to be 804 nM in the assay with UACC-62 melanoma; 5730 nM in the assay with SF-268 CNS; 520 nM in the assay with ACHN renal; 1690 nM with SF-539 CNS; 871 nM in the assay on SK-MEL-5 melanoma; 1010 nM in the assay with NCI/ADR-RES ovarian. Also, the TGI came to 545 nM with HCT-116 colon, 3450 nM in the assay on SK-MEL-2 melanoma, 4070 nM in the assay on COLO 205 colon and 1670 nM with NCI-H23 lung.
